Source: patent publication US8946223B2, “Substituted hydroxamic acids and uses thereof” (Millennium Pharmaceuticals, Inc., priority 2010, dated 2015)

Target: T1, purified human HDAC6 (Homo sapiens, UniProt Q9UBN7)
T1 construct: purchased BPS Bioscience 5006
T1 sequence (Q9UBN7 1-1215): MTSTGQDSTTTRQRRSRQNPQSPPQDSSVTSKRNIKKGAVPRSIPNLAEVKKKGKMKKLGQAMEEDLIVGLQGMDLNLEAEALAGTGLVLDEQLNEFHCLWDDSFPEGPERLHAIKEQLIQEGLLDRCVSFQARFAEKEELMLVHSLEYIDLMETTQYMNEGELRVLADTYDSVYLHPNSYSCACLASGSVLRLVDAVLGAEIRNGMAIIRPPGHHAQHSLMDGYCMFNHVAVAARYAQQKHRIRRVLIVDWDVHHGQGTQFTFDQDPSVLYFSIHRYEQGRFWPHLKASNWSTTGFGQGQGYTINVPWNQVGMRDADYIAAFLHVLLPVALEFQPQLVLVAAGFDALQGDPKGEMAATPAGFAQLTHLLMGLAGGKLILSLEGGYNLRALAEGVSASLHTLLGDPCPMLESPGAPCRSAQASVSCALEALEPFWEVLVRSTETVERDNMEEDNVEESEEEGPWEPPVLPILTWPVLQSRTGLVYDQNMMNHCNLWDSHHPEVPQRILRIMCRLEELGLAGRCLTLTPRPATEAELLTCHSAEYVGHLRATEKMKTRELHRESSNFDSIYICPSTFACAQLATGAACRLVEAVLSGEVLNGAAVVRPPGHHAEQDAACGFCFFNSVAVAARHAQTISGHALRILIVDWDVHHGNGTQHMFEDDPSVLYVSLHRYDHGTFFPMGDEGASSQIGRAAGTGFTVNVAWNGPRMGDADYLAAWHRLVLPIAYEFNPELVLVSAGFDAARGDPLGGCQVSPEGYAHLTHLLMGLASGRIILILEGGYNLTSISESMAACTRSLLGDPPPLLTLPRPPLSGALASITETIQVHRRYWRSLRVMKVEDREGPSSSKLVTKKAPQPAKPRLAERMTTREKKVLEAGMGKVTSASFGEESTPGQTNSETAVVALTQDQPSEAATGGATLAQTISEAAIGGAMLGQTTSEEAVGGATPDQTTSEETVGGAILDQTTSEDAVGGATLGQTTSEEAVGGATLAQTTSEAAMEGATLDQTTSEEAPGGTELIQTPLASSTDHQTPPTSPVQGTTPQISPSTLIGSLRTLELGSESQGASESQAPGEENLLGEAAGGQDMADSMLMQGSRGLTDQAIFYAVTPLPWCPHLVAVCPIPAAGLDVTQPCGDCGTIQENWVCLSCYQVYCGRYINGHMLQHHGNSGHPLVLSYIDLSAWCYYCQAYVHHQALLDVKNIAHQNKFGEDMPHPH
Assay: HDAC6 enzyme assay
Assay type: biochemical
Method: To measure the inhibition of HDAC6 activity, purified human HDAC6 (BPS Bioscience; Cat. No. 5006) is incubated with substrate Ac-Arg-Gly-Lys(Ac)-AMC peptide (Bachem Biosciences; Cat. No. I-1925) for 1 hour at 30° C. in the presence of test compounds or vehicle DMSO control. The reaction is stopped with the HDAC inhibitor trichostatin A (Sigma; Cat. No. T8552) and the amount of Arg-Gly-Lys-AMC generated is quantitated by digestion with trypsin (Sigma; Cat. No. T1426) and subsequent measurement of the amount of AMC released using a fluorescent plate reader (Pherastar; BMG Technologies) set at Ex 340 nm and Em 460 nm. Concentration response curves are generated by calculating the fluorescence increase in test compound-treated samples relative to DMSO-treated controls, and enzyme inhibition (IC50) values are determined from those curves.

[1] = bins: greater than 1 μM and less than 10 μM, greater than 10 μM

SMILES | IC50 (bin: less than 100 nM) | IC50 [1]
O=C(NO)c1cn2c(n1)CN(C(=O)Nc1ccccc1)CC2 [Compound I-116, N2-hydroxy-N7-phenyl-5,6-dihydroimidazo[1,2-a]pyrazine-2,7(8H)-dicarboxamide] | < 0.1 µM | –
O=C(NO)c1cc2n(c1)CCN(Cc1ccc(C(F)(F)F)cc1)C2=O [Compound I-240, N-hydroxy-1-oxo-2-[4-(trifluoromethl)benzyl]-1,2,3,4-tetrahydropyrrolo[1,2-a]pyrazine-7-carboxamide] | < 0.1 µM | –
CCCCN1CCn2cc(C(=O)NO)cc2C1 [Compound I-86, 2-butyl-N-hydroxy-1,2,3,4-tetrahydropyrrolo[1,2-a]pyrazine-7-carboxamide] | – | > 10 µM
O=C(NO)c1cc2n(c1)CCCN(C(=O)C1CCCC1)C2 [Compound I-19, 2-(cyclopentylcarbonyl)-N-hydroxy-2,3,4,5-tetrahydro-1H-pyrrolo[1,2-a][1,4]diazepine-8-carboxamide] | – | > 10 µM
Cc1cc(C(=O)N2CCn3cc(C(=O)NO)cc3C2)c(C)[nH]1 [Compound I-94, 2-[(2,5-dimethyl-1H-pyrrol-3-yl)carbonyl]-N-hydroxy-1,2,3,4-tetrahydropyrrolo[1,2-a]pyrazine-7-carboxamide] | < 0.1 µM | –
CC(=O)c1c(C)[nH]c(C(=O)N2CCn3cc(C(=O)NO)cc3C2)c1C [Compound I-15, 2-[(4-acetyl-3,5-dimethyl-1H-pyrrol-2-yl)carbonyl]-N-hydroxy-1,2,3,4-tetrahydropyrrolo[1,2-a]pyrazine-7-carboxamide] | – | 1 to 10 µM
CCC(C)NC(=O)N1CCn2cc(C(=O)NO)nc2C1 (centres unmarked) [Compound I-118, N7-(sec-butyl)-N2-hydroxy-5,6-dihydroimidazo[1,2-a]pyrazine-2,7(8H)-dicarboxamide] | – | 1 to 10 µM
O=C(NO)c1cc2n(n1)CCCN(C(=O)C13CC4CC(CC(C4)C1)C3)C2 [Compound I-72, 5-(1-adamantylcarbonyl)-N-hydroxy-5,6,7,8-tetrahydro-4H-pyrazolo[1,5-a][1,4]diazepine-2-carboxamide] | – | 1 to 10 µM
Cc1c(C(=O)N2CCn3cc(C(=O)NO)cc3C2)cc(-c2ccccc2)n1-c1ccccc1 [Compound I-87, N-hydroxy-2-[(2-methyl-1,5-diphenyl-1H-pyrrol-3-yl)carbonyl]-1,2,3,4-tetrahydropyrrolo[1,2-a]pyrazine-7-carboxamide] | < 0.1 µM | –

Now from value to molecule:

IC50 (bin: less than 100 nM) | IC50 [1] | SMILES
< 0.1 µM | – | Cn1ccc2cc(C(=O)N3CCn4cc(C(=O)NO)cc4C3)ccc21 [Compound I-89, N-hydroxy-2-[(1-methyl-1H-indol-5-yl)carbonyl]-1,2,3,4-tetrahydropyrrolo[1,2-a]pyrazine-7-carboxamide]
– | 1 to 10 µM | Cc1nc(CC(=O)N2CCn3nc(C(=O)NO)cc3C2)cs1 [Compound I-90, N-hydroxy-5-[(2-methyl-1,3-thiazol-4-yl)acetyl]-4,5,6,7-tetrahydropyrazolo[1,5-a]pyrazine-2-carboxamide]
– | > 10 µM | CC(C)(C)C(=O)N1CCn2nc(C(=O)NO)cc2C1 [Compound I-36, 5-(2,2-dimethylpropanoyl)-N-hydroxy-4,5,6,7-tetrahydropyrazolo[1,5-a]pyrazine-2-carboxamide]
– | 1 to 10 µM | Cn1c(C(=O)N2CCCn3nc(C(=O)NO)cc3C2)cc2ccccc21 [Compound I-105, N-hydroxy-5-[(1-methyl-1H-indol-2-yl)carbonyl]-5,6,7,8-tetrahydro-4H-pyrazolo[1,5-a][1,4]diazepine-2-carboxamide]
– | 1 to 10 µM | Cn1nc(C(C)(C)C)cc1C(=O)N1CCCn2cc(C(=O)NO)cc2C1 [Compound I-63, 2-[(3-tert-butyl-1-methyl-1H-pyrazol-5-yl)carbonyl]-N-hydroxy-2,3,4,5-tetrahydro-1H-pyrrolo[1,2-a][1,4]diazepine-8-carboxamide]
– | > 10 µM | Cn1cccc1C(=O)N1CCCn2nc(C(=O)NO)cc2C1 [Compound I-71, N-hydroxy-5-[(1-methyl-1H-pyrrol-2-yl)carbonyl]-5,6,7,8-tetrahydro-4H-pyrazolo[1,5-a][1,4]diazepine-2-carboxamide]
< 0.1 µM | – | COc1ccc(C(=O)N2CCn3cc(C(=O)NO)cc3C2)cc1 [Compound I-68, N-hydroxy-2-(4-methoxybenzoyl)-1,2,3,4-tetrahydropyrrolo[1,2-a]pyrazine-7-carboxamide]
< 0.1 µM | – | Cn1c(C(=O)N2CCn3nc(C(=O)NO)cc3C2)cc2ccccc21 [Compound I-31, N-hydroxy-5-[(1-methyl-1H-indol-2-yl)carbonyl]-4,5,6,7-tetrahydropyrazolo[1,5-a]pyrazine-2-carboxamide]
